pEC50: −log10 of the molar value.
What follows are compounds tested on non-transgenic N2 C. elegans (assay: Motor function in non-transgenic N2 C. elegans). Settings: non-transgenic N2 line; FIG. 19 varying doses, FIG. 21 34.8 μM.
Type: in vivo

Compound	motor function
CCc1ccc(NC(=O)C(Cc2ccccc2)NS(=O)(=O)c2cccc3cccnc23)cc1 (stereo not drawn) [Compound 7]	improves motor function

What follows are compounds tested on mutant TDP-43 inclusions in human BE-M17 neuroblastoma cells (assay: Arsenite-induced TDP-43 inclusion formation in BE-M17 cells). Settings: arsenite 0.5 mM, 1 hr, 10 μg/ml.
Type: cell-based
Description: The inventors transfected human BE-M17 neuroblastoma cells with WT TDP-43, TDP-4386-414 or TDP-43216-414 constructs N-terminally tagged with GFP. Full length WT TDP-43 localized to the nucleus under basal conditions (FIG. 15, WT TDP-43 shown). To investigate TDP-43 aggregation under the stressful conditions, cells were exposed to arsenite, an agent classically used to induce SGs (Biochem Soc Trans, 2002, 30, 963-9; J Cell Biol, 2000, 151, 1257-68; J Cell Biol, 1999, 147, 1431-42; each herein incorporated by reference in its entirety). Arsenite causes stress through multiple mechanisms (Toxicol Appl Pharmacol, 2001, 177, 132-48; herein incorporaed by reference in its entirety). Arsenite directly induces oxidative stress by reacting with oxygen in a reaction similar to the Fenton reaction, and arsenite also uses up glutathione, which causes further oxidative stress (Toxicol Appl Pharmacol, 2001, 177, 132-48; herein incorporaed by reference in its entirety). Upon exposure to arsenite (1 hr) WT TDP-43 remained largely nuclear, but a small amount translocated to the cytoplasm where it formed inclusions (FIG. 15A, right panels, arrows). To determine whether the inclusions co-localized with SGs, we co-labeled the cells with antibodies to SG markers, including TIA-1, eIF3 and poly-A binding protein (PABP) (FIG. 15). […] Co-localization with other SG markers is also observed. […]

Compound	formation of inclusions composed of mutant TDP-43 constructs
C[C@@H]1C[C@@H]([C@H](O)CC2CC(=O)NC(=O)C2)C(=O)[C@@H](C)C1 [cycloheximide]	reversible

Each compound was assayed on C. elegans expressing human WT TDP-43 (CK405) (assay: Motor function in C. elegans expressing human WT TDP-43). Settings: transgenic TDP-43 nematodes, line not specified.
Type: in vivo
Description: Determining whether compounds delay deterioration of motor function in C. elegans expressing TDP-43 in C. elegans: C. elegans is generally used as a simple in vivo model of disease bridging the gap between in vitro studies and in vivo studies in rodents (J Biol Chem, 2005. 280: 42655-68; J Neurosci, 2009. 29: 9210-8; Neurodegener Dis, 2010. 7: 68-75; each herein incorporated by reference in its entirety). Accordingly, C. elegans lines expressing TDP-43 (WT, G294A and A315T), obtained from Brian Kraemer, can be used to determine whether the indentified compounds ameliorate motor dysfunction associated with TDP-43 expression (J Neurosci, 2010. 30: 16208-19; herein incorporated by reference in its entirety). […] Movement and survival are calculated at adult days 1, 3 and 5, using methods described in the art (see, e.g., J. Neurosci. 2010 December 1, 30(48):16208-19; IEEE Trans Biomed Eng. 2004 October 51(10):1811-20, each herein incorporated by reference in its entirety).
In one example, eggs (C. elegans expressing A315T TDP-43, line CK426) were plated on agar containing the test compound. On day 4, movement of C. elegans was quantified and moved to plates with fresh compounds. On day 5, movement of C. elegans was again quantified. […]

Compound	motor function
CCc1ccc(NC(=O)C(Cc2ccccc2)NS(=O)(=O)c2cccc3cccnc23)cc1 (stereo not drawn) [Compound 7]	improves motor function

These compounds were tested on TDP-43 inclusions in PC12 cells expressing WT TDP-43::GFP (assay: High-throughput screen for inhibition of TDP-43 inclusion formation in inducible TDP-43::GFP PC12 cells (IN Cell Analyzer)). Settings: Rattus norvegicus, PC-12, 18 h, read-out: Inhibition of TDP-43 Inclusion Formation EC50.
Description: We generated a Tet-Off inducible PC12 cell line (Clontech; the parent line stably expresses high levels of the Tetracycline binding protein) that is stably transfected with a WT TDP-43::GFP (where the GFP is at the C-terminus). […] The high-throughput screen used the arsenite (50 μM, 18 hrs) treatment protocol, where arsenite was added 1 hr after the test compounds.
We used the automated GE IN Cell Analyzer 1000 microscope system for high throughput analyses. Test chemicals were added to the cells 48 hrs after induction of TDP-43 (by removal of doxycycline). After another 24 hrs, the cells were fixed and double-stained with DAPI (to detect nuclei). Inclusions present in a collar around the nucleus but not fully co-localized with the DAPI stain (FIG. 1) were identified by the IN-Cell analyzer as inclusions. The computer counted the number of cells (based on DAPI-positive nuclei), TDP-43 levels and inclusions per field. The counts from 6 different fields within a well were averaged to develop a measure of the mean number of inclusions per field. This was repeated for every well in a 384 well plate and every plate in the library.
PC12 cells are grown in DMEM, 10% NBS/Pen-Strep, 100 μg/ml hygromycin, 50 μM puromycin and 50 μg/ml doxycycline (the latter is removed for TDP-43 induction).

pEC50	Compound
5.82	COc1c(C)c2c(c(O)c1C/C=C(\C)CCC(=O)O)C(=O)OC2 [Mycophenolic acid, reference compound]

Same assay, conditions: read-out: Inhibition of TDP-43 Inclusion Formation EC50; PC12 TDP-43::GFP cells; arsenite 50 μM, 18 hrs; representative values

Compound	pEC50
CC(C)(C)c1ccc(S(=O)(=O)Nc2ccc(SCc3nc(OCC(F)(F)F)cc(OCC(F)(F)F)n3)cc2)cc1 [Compound 2-1]	6.82
C#CCNCC1(c2ccccc2)CCN(CCCCOC(c2ccc(F)cc2)c2ccc(F)cc2)CC1 [Compound 2-2]	6.54
OC1(c2ccccc2)CCN(CCCCOC(c2ccc(F)cc2)c2ccc(F)cc2)CC1 [Compound 2-3]	5.72
Cc1ccc2ncnc(Nc3cccc(Cl)c3)c2c1 [Compound 2-4]	8.00
Cc1cc2cc(CCNS(=O)(=O)c3ccc(Cl)cc3)c(=O)[nH]c2cc1C [Compound 2-5]	5.89
COCc1ccc(C(=O)NC(CC(C)C)c2nnc3n2CCN(Cc2cc4ccccc4o2)CC3)o1 (stereo not drawn) [Compound 2-7]	7.96
COc1cccc(CN2CCN(C(=O)c3cc4ccccc4[nH]3)CCC2=O)c1 [Compound 2-8]	6.74
CCN(CC1CCCN(CCc2ccccc2OC)C1)C(=O)c1cc2ccccc2[nH]1 (stereo not drawn) [Compound 2]	7.13
COc1cc(NC(=O)CCC2CCCN(Cc3ccc(F)c(OC)c3)C2)cc(OC)c1 (stereo not drawn) [Compound 3]	7.41
COc1ccccc1OCC(=O)NC1CCCN(c2ccc(C(F)(F)F)cn2)C1 (stereo not drawn) [Compound 4]	7.01
COc1ccc(C2C(C(=O)Nc3ccccc3OC)=C(C)Nc3nc4ccccc4n32)cc1 (stereo not drawn) [Compound 5]	6.51
COc1ccc(NC(=O)C(Cc2ccccc2)NS(=O)(=O)c2cccc3cccnc23)cc1 (stereo not drawn) [Compound 6]	7.82
CCc1ccc(NC(=O)C(Cc2ccccc2)NS(=O)(=O)c2cccc3cccnc23)cc1 (stereo not drawn) [Compound 7]	6.86
Mithramycin A [reference compound]	5.70

— patent publication US9359363B2, “Identification of compounds that disperse TDP-43 inclusions” (priority 2011, dated 2016)
